{"source": "paper PMC10850145", "about": "“Hormonal steroids induce multidrug resistance and stress response genes in Neisseria gonorrhoeae by binding to MtrR” (Nature Communications, 2024)", "test_system": "mtrC-lacZ expression", "type": "cell-based, Neisseria gonorrhoeae", "settings": "for Miller units, Mean: mtrCDE, ΔmtrR, left block Plate-4; for β-galactosidase activity, Miller units (single replicate) / β-galactosidase activity, individual replicate: mtrR WT in cis; for β-galactosidase activity, individual replicate: single replicate values, second (right) block; for Miller units: single well; for mtrC-lacZ β-galactosidase activity, Mean: left block of sheet (mtrCDE)", "key": {"[1]": {"settings": "second block of sheet (c39-c76), ΔmtrR + mtrR R176E in trans, 6.25 µM"}, "[2]": {"settings": "second block of sheet (c39-c76), ΔmtrR + mtrR R176E in trans, 12.5 µM"}, "[3]": {"settings": "second block of sheet (c39-c76), ΔmtrR + mtrR R176E in trans, 25 µM"}, "[4]": {"settings": "second block of sheet (c39-c76), ΔmtrR + mtrR R176E in trans, 50 µM"}}, "note": "Where “and” joins values, the source holds several entries; their conditions need not be identical. Equal entries are not always repeated. Where two headings read alike, the source gives them in different places.", "data": [{"smiles": "C[C@]12CC[C@H]3[C@@H](CCC4=CC(=O)CC[C@@]43C)[C@@H]1CC[C@@H]2O", "note": "[Testosterone, testosterone]", "values": [{"measurement": "Miller units, Mean", "setting": "testosterone 50 µM", "value": 284, "unit": "Miller units"}, {"measurement": "Miller units, Mean", "setting": "testosterone 100 µM", "value": 369, "unit": "Miller units"}, {"measurement": "β-galactosidase activity, Miller units (single replicate)", "setting": "1 µM, first data set (c15-c36)", "value": "149 Miller units and 125 Miller units and 138 Miller units and 141 Miller units"}, {"measurement": "β-galactosidase activity, individual replicate", "setting": "6.25 µM hormone", "value": "103 Miller units and 88 Miller units"}, {"measurement": "β-galactosidase activity, Miller units (single replicate)", "setting": "6.25 µM, second data set (c53-c74)", "value": "73 Miller units and 58 Miller units"}, {"measurement": "β-galactosidase activity, Miller units (single replicate)", "setting": "10 µM, first data set (c15-c36)", "value": "251 Miller units and 213 Miller units and 245 Miller units and 230 Miller units"}, {"measurement": "β-galactosidase activity, individual replicate", "setting": "12.5 µM hormone", "value": 126, "unit": "Miller units"}, {"measurement": "β-galactosidase activity, Miller units (single replicate)", "setting": "12.5 µM, second data set (c53-c74)", "value": "92 Miller units and 94 Miller units"}, {"measurement": "β-galactosidase activity, individual replicate", "setting": "25 µM hormone", "value": "144 Miller units and 138 Miller units"}, {"measurement": "β-galactosidase activity, Miller units (single replicate)", "setting": "25 µM, first data set (c15-c36)", "value": "283 Miller units and 251 Miller units and 242 Miller units and 281 Miller units"}, {"measurement": "β-galactosidase activity, Miller units (single replicate)", "setting": "25 µM, second data set (c53-c74)", "value": "129 Miller units and 111 Miller units"}, {"measurement": "β-galactosidase activity, individual replicate", "setting": "50 µM hormone", "value": "161 Miller units and 150 Miller units"}, {"measurement": "β-galactosidase activity, Miller units (single replicate)", "setting": "50 µM, first data set (c15-c36)", "value": "237 Miller units and 229 Miller units and 224 Miller units and 225 Miller units"}, {"measurement": "β-galactosidase activity, Miller units (single replicate)", "setting": "50 µM, second data set (c53-c74)", "value": "118 Miller units and 110 Miller units"}, {"measurement": "β-galactosidase activity, Miller units (single replicate)", "setting": "100 µM, first data set (c15-c36)", "value": "228 Miller units and 230 Miller units and 281 Miller units and 254 Miller units"}, {"measurement": "β-galactosidase activity, Mean", "setting": "[1]", "value": 60, "unit": "Miller units"}, {"measurement": "β-galactosidase activity, single replicate", "setting": "[1]", "value": "66 Miller units and 62 Miller units and 61 Miller units and 50 Miller units"}, {"measurement": "β-galactosidase activity, Mean", "setting": "[2]", "value": 68, "unit": "Miller units"}, {"measurement": "β-galactosidase activity, single replicate", "setting": "[2]", "value": "65 Miller units and 76 Miller units and 70 Miller units and 59 Miller units"}, {"measurement": "β-galactosidase activity, Mean", "setting": "[3]", "value": 80, "unit": "Miller units"}, {"measurement": "β-galactosidase activity, single replicate", "setting": "[3]", "value": "70 Miller units and 77 Miller units and 92 Miller units and 80 Miller units"}, {"measurement": "β-galactosidase activity, Mean", "setting": "[4]", "value": 83, "unit": "Miller units"}, {"measurement": "β-galactosidase activity, single replicate", "setting": "[4]", "value": "89 Miller units and 78 Miller units and 94 Miller units and 70 Miller units"}, {"measurement": "Miller units", "setting": "plate rows 1-4, plate columns 1-6 (first strain), 6.25 µM hormone", "value": "96 Miller units and 59 Miller units and 65 Miller units and 57 Miller units"}, {"measurement": "Miller units", "setting": "plate rows 1-4, plate columns 1-6 (first strain), 12.5 µM hormone", "value": "116 Miller units and 66 Miller units and 73 Miller units and 70 Miller units"}, {"measurement": "Miller units", "setting": "plate rows 1-4, plate columns 1-6 (first strain), 25 µM hormone", "value": "132 Miller units and 102 Miller units and 83 Miller units and 75 Miller units"}, {"measurement": "Miller units", "setting": "plate rows 1-4, plate columns 1-6 (first strain), 50 µM hormone", "value": "147 Miller units and 111 Miller units and 107 Miller units and 103 Miller units"}, {"measurement": "Miller units", "setting": "plate rows 1-4, plate columns 7-12 (second strain), 6.25 µM hormone", "value": "119 Miller units and 100 Miller units and 89 Miller units and 76 Miller units"}, {"measurement": "Miller units", "setting": "plate rows 1-4, plate columns 7-12 (second strain), 12.5 µM hormone", "value": "126 Miller units and 101 Miller units and 100 Miller units and 81 Miller units"}, {"measurement": "Miller units", "setting": "plate rows 1-4, plate columns 7-12 (second strain), 25 µM hormone", "value": "155 Miller units and 122 Miller units and 93 Miller units and 79 Miller units"}, {"measurement": "Miller units", "setting": "plate rows 1-4, plate columns 7-12 (second strain), 50 µM hormone", "value": "151 Miller units and 132 Miller units and 101 Miller units and 93 Miller units"}, {"measurement": "β-galactosidase activity, mtrC-lacZ, Mean", "setting": "strain WT (FA19/pLES94-mtrC), hormone 6.25 µM", "value": 141, "unit": "Miller units"}, {"measurement": "β-galactosidase activity, mtrC-lacZ, Mean", "setting": "strain WT (FA19/pLES94-mtrC), hormone 12.5 µM", "value": 166, "unit": "Miller units"}, {"measurement": "β-galactosidase activity, mtrC-lacZ, Mean", "setting": "strain WT (FA19/pLES94-mtrC), hormone 25 µM", "value": 178, "unit": "Miller units"}, {"measurement": "β-galactosidase activity, mtrC-lacZ, Mean", "setting": "strain WT (FA19/pLES94-mtrC), hormone 50 µM", "value": 195, "unit": "Miller units"}, {"measurement": "mtrC-lacZ β-galactosidase activity, Mean", "setting": "strain WT, 1 µM hormone", "value": 138, "unit": "Miller units"}, {"measurement": "β-galactosidase activity, Mean", "setting": "strain WT, 6.25 µM hormone, second (right) untitled block of sheet Figure S10 (mtrC)", "value": 81, "unit": "Miller units"}, {"measurement": "mtrC-lacZ β-galactosidase activity, Mean", "setting": "strain WT, 10 µM hormone", "value": 235, "unit": "Miller units"}, {"measurement": "mtrC-lacZ β-galactosidase activity, Mean", "setting": "strain WT, 25 µM hormone", "value": 264, "unit": "Miller units"}, {"measurement": "β-galactosidase activity, Mean", "setting": "strain WT, 25 µM hormone, second (right) untitled block of sheet Figure S10 (mtrC)", "value": 130, "unit": "Miller units"}, {"measurement": "mtrC-lacZ β-galactosidase activity, Mean", "setting": "strain WT, 50 µM hormone", "value": 229, "unit": "Miller units"}, {"measurement": "β-galactosidase activity, Mean", "setting": "strain WT, 50 µM hormone, second (right) untitled block of sheet Figure S10 (mtrC)", "value": 134, "unit": "Miller units"}, {"measurement": "mtrC-lacZ β-galactosidase activity, Mean", "setting": "strain WT, 100 µM hormone", "value": 248, "unit": "Miller units"}, {"measurement": "activation of mtrC", "setting": "strain producing MtrR R176E", "value": "significantly less activation"}, {"measurement": "β-galactosidase activity, mtrC-lacZ, Mean", "setting": "strain ΔmtrR (FA19 ∆mtrR/pLES94-mtrC), hormone 6.25 µM", "value": 265, "unit": "Miller units"}, {"measurement": "β-galactosidase activity, mtrC-lacZ, Mean", "setting": "strain ΔmtrR (FA19 ∆mtrR/pLES94-mtrC), hormone 12.5 µM", "value": 244, "unit": "Miller units"}, {"measurement": "β-galactosidase activity, mtrC-lacZ, Mean", "setting": "strain ΔmtrR (FA19 ∆mtrR/pLES94-mtrC), hormone 25 µM", "value": 276, "unit": "Miller units"}, {"measurement": "β-galactosidase activity, mtrC-lacZ, Mean", "setting": "strain ΔmtrR (FA19 ∆mtrR/pLES94-mtrC), hormone 50 µM", "value": 272, "unit": "Miller units"}, {"measurement": "β-galactosidase activity, mtrC-lacZ, Mean", "setting": "strain ΔmtrR + mtrR D171A (pGCC3-mtrR D171A), hormone 6.25 µM", "value": 170, "unit": "Miller units"}, {"measurement": "β-galactosidase activity, mtrC-lacZ, Mean", "setting": "strain ΔmtrR + mtrR D171A (pGCC3-mtrR D171A), hormone 12.5 µM", "value": 175, "unit": "Miller units"}, {"measurement": "β-galactosidase activity, mtrC-lacZ, Mean", "setting": "strain ΔmtrR + mtrR D171A (pGCC3-mtrR D171A), hormone 25 µM", "value": 170, "unit": "Miller units"}, {"measurement": "β-galactosidase activity, mtrC-lacZ, Mean", "setting": "strain ΔmtrR + mtrR D171A (pGCC3-mtrR D171A), hormone 50 µM", "value": 162, "unit": "Miller units"}, {"measurement": "mtrC-lacZ β-galactosidase activity, Mean", "setting": "strain ΔmtrR + mtrR R176E, 1 µM hormone", "value": 178, "unit": "Miller units"}, {"measurement": "β-galactosidase activity, Mean", "setting": "strain ΔmtrR + mtrR R176E, 6.25 µM hormone, second (right) untitled block of sheet Figure S10 (mtrC)", "value": 60, "unit": "Miller units"}, {"measurement": "mtrC-lacZ β-galactosidase activity, Mean", "setting": "strain ΔmtrR + mtrR R176E, 10 µM hormone", "value": 206, "unit": "Miller units"}, {"measurement": "β-galactosidase activity, Mean", "setting": "strain ΔmtrR + mtrR R176E, 12.5 µM hormone, second (right) untitled block of sheet Figure S10 (mtrC)", "value": 68, "unit": "Miller units"}, {"measurement": "β-galactosidase activity, Mean", "setting": "strain ΔmtrR + mtrR R176E, 25 µM hormone, second (right) untitled block of sheet Figure S10 (mtrC)", "value": 80, "unit": "Miller units"}]}]}
